{
  "source": "paper PMC2777269",
  "about": "(Nature medicine, 2002)",
  "molecules": {"B1": {"name": "SAA: a proteolytic product of the acute phase response (protein, UniProt P0DJI8 19-122, looked up)", "Serum amyloid A-1 protein": "RSFFSFLGEAFDGARDMWRAYSDMREANYIGSDKYFHARGNYDAAKRGPGGAWAAEVITDARENIQRFFGHGAEDSLADQAANEWGRSGKDPNHFRPAGLPEKY"}, "B2": {"name": "ANXA1: protein of 346 amino acids and a member of the annexin superfamily, highly abundant PMN-derived protein induced by glucocorticoids (protein, UniProt P04083 2-346, looked up)", "Annexin A1": "AMVSEFLKQAWFIENEEQEYVQTVKSSKGGPGSAVSPYPTFNPSSDVAALHKAIMVKGVDEATIIDILTKRNNAQRQQIKAAYLQETGKPLDETLKKALTGHLEEVVLALLKTPAQFDADELRAAMKGLGTDEDTLIEILASRTNKEIRDINRVYREELKRDLAKDITSDTSGDFRNALLSLAKGDRSEDFGVNEDLADSDARALYEAGERRKGTDVNVFNTILTTRSYPQLRRVFQKYTKYSKHDMNKVLDLELKGDIEKCLTAIVKCATSKPAFFAEKLHQAMKGVGTRHKALIRIMVSRSEIDMNDIKAFYQKMYGISLCQAILDETKGDYEKILVALCGGN"}, "B3": {"name": "hrANXA1: human recombinant annexin 1 (protein)", "chain": "MAMVSEFLKQAWFIENEEQEYVQTVKSSKGGPGSAVSPYPTFNPSSDVAALHKAIMVKGVDEATIIDILTKRNNAQRQQIKAAYLQETGKPLDETLKKALTGHLEEVVLALLKTPAQFDADELRAAMKGLGTDEDTLIEILASRTNKEIRDINRVYREELKRDLAKDITSDTSGDFRNALLSLAKGDRSEDFGVNEDLADSDARALYEAGERRKGTDVNVFNTILTTRSYPQLRRVFQKYTKYSKHDMNKVLDLELKGDIEKCLTAIVKCATSKPAFFAEKLHQAMKGVGTRHKALIRIMVSRSEIDMNDIKAFYQKMYGISLCQAILDETKGDYEKILVALCGGN"}},
  "key": {"[1]": {"test_system": "human PMNs", "assay": "Ca^2+ mobilization in Fura2-AM-loaded human PMNs"}, "[2]": {"test_system": "PMN transmigration and adhesion", "settings": "cited from earlier work"}, "[3]": {"test_system": "Zymosan A-driven PMN infiltration", "assay": "Zymosan A-initiated PMN infiltration, 6-day-old murine air pouch", "settings": "4 h; for inhibition of Zymosan A-driven PMN infiltration: mean, n = 8"}, "[4]": {"test_system": "15-epi-LXA4", "assay": "15-epi-LXA4 generation in murine air-pouch exudates", "type": "in vivo, Swiss Albino mice", "settings": "ASA 300 μg; 4 and 16 h; n = 8"}, "[5]": {"test_system": "human PMNs", "assay": "Human PMN chemotaxis", "settings": "n = 3"}, "[6]": {"test_system": "recombinant ALXR/FPRL1 (CHO-Gqo-ALXR cells)", "assay": "Chemotaxis of CHO cells expressing ALXR and Gqo chimera", "settings": "ATLa1 100 nM, Ac2-26 100 μM; 4 h, 37 °C; n = 3"}, "[7]": {"test_system": "human LTB4 receptor (BLT1)", "settings": "BLT1-transfected HEK293 cells; cited from earlier work"}, "[8]": {"test_system": "monocytes/macrophages", "settings": "nonphlogistic; cited from earlier work"}, "[9]": {"molecular_target": "T1, recombinant ALXR/FPRL1 (Homo sapiens, UniProt P25090)", "T1 sequence (P25090 1-351)": "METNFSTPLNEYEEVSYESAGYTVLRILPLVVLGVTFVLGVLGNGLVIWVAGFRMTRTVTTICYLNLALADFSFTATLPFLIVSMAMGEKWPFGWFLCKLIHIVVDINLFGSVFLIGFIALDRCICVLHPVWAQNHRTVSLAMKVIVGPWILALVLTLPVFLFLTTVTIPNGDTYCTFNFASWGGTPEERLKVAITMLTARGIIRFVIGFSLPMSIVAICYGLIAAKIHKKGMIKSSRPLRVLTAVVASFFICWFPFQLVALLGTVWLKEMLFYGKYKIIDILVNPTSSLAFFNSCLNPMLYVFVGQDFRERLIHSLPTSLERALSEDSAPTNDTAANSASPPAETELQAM", "settings": "HEK293-ALXR, 30 nM [^125I-Tyr]Ac2-26, 40 min, 4 °C; duplicates, n = 3"}, "[10]": {"molecular_target": "T2, adherent human PMNs (ALXR/FPRL1) (Homo sapiens, UniProt P25090)", "T2 sequence (P25090 1-351)": "T1 sequence (P25090 1-351)", "assay": "[^125I-Tyr]Ac2-26 binding, adherent human PMNs", "settings": "30 nM [^125I-Tyr]Ac2-26, duplicates, n = 3"}, "[11]": {"molecular_target": "T3, human PMNs (ALXR/FPRL1) (Homo sapiens, UniProt P25090)", "T3 sequence (P25090 1-351)": "T1 sequence (P25090 1-351)", "assay": "[^125I-Tyr]Ac2-26 binding, isolated human PMNs in suspension", "settings": "30 nM [^125I-Tyr]Ac2-26, 40 min, 4 °C, duplicates, n = 3"}, "[12]": {"test_system": "ALXR/FPRL1", "settings": "cited from earlier work"}, "[13]": {"test_system": "human PMN oxidative burst", "settings": "cited from earlier work"}, "[14]": {"molecular_target": "T4, human ALXR (ALXR/FPRL1) (Homo sapiens, UniProt P25090)", "T4 sequence (P25090 1-351)": "T1 sequence (P25090 1-351)", "settings": "at much higher concentrations than LXA4; cited from earlier work"}, "[15]": {"molecular_target": "T5, human recombinant lipoxin A4 receptor (ALXR/FPRL1) expressed on HEK293 cells (human, UniProt P25090 1-351)", "T5 sequence (looked up)": "T1 sequence (P25090 1-351)", "assay": "radioligand binding"}, "[16]": {"molecular_target": "T5, human recombinant lipoxin A4 receptor …", "assay": "radioligand binding", "remark": "listed apart in the source"}, "[17]": {"test_system": "PMN transmigration and phagocytosis", "settings": "in vitro and in vivo; cited from earlier work"}, "[18]": {"test_system": "ANXA1", "assay": "ANXA1 generation in murine air-pouch exudates", "type": "in vivo, Swiss Albino mice", "settings": "4 h versus 16 h; n = 8"}, "[19]": {"test_system": "ALXR/FPRL1", "assay": "ANXA1/ALXR co-immunoprecipitation, human PMNs", "type": "binding", "settings": "non-adherent human PMNs (control)"}, "[20]": {"test_system": "formyl peptide receptors (FPRs)", "settings": "partially diminished; cited from earlier work"}},
  "note": "Where two headings read alike, the source gives them in different places. Ends that are not written are not given here. * marks the point of attachment. 125I = [125I]*",
  "data": [
    {"molecule": "O=c1c(-c2ccc(O)cc2)coc2cc(O)cc(O)c12", "note": "[genistein, reference compound]", "values": [
      {"measurement": "block of Ac2-26 calcium mobilization response", "setting": "[1]; Supplementary Fig. B, panel c", "result": "partially blocked"},
      {"measurement": "modulation of LXA4-regulated PMN transmigration and adhesion", "setting": "[2]", "result": "modulates LXA4-regulated PMN transmigration and adhesion"}
    ]},
    {"molecule": "C[C@@H]1C[C@H]2[C@@H]3CCC4=CC(=O)C=C[C@]4(C)[C@@]3(F)[C@@H](O)C[C@]2(C)[C@@]1(O)C(=O)CO", "note": "[DEX, dexamethasone, reference compound]", "values": [
      {"measurement": "inhibition of Zymosan A-driven PMN infiltration", "setting": "[3]; DEX alone 10 μg into pouch 15 min before Zymosan A (1 mg)", "result": 53, "unit": "%"}
    ]},
    {"molecule": "O=C(O)CCC[C@H](O)[C@H](O)/C=C/C=C/C=C\\C=C\\[C@@H](O)COc1ccc(F)cc1", "note": "[ATLa, 15-epi-16-(para-fluoro)-phenoxy-LXA4]", "values": [
      {"measurement": "inhibition of PMN infiltration, i.v. ATLa 5 μg", "setting": "[3]; 5 μg per mouse (~12 nmol) i.v. 15 min before Zymosan A, n = 6–8", "result": "~ 40%"},
      {"measurement": "inhibition of PMN infiltration, administered (in words)", "setting": "[3]; ATLa 0.5–5 μg, Ac2-26 5–100 μg i.v., n = 6–8", "result": "potent inhibitors of PMN infiltration"}
    ]},
    {"molecule": "CC(=O)Oc1ccccc1C(=O)O", "note": "[ASA, Aspirin, reference compound]", "values": [
      {"measurement": "inhibition of Zymosan A-driven PMN infiltration", "setting": "[3]; ASA alone 1 mg into pouch 15 min before Zymosan A (1 mg)", "result": 36, "unit": "%"},
      {"measurement": "15-epi-LXA4 (ATL) generation in ASA-treated animals", "setting": "[4]", "result": "generated and present in ASA-treated animals at 4 hours that diminished by 16 hours"}
    ]},
    {"molecule": "CCCCCC(C)(O)/C=C/C=C\\C=C\\C=C\\[C@@H](O)[C@@H](O)CCCC(=O)O", "note": "(mixture of isomers) [ATLa1, 15(R/S)-methyl-LXA4]", "values": [
      {"measurement": "block of Ac2-26-evoked chemotaxis, human PMNs", "setting": "[5]; ATLa1 10 or 100 nM, 30 min, 37 °C, Ac2-26 1–10 μM", "result": "clearly blocked Ac2-26 evoked chemotaxis"},
      {"measurement": "chemotactic activity, human PMNs", "setting": "[5]; Ac2-26 1–10 μM or ATLa1 alone 10–100 nM", "result": "did not evoke chemotaxis"},
      {"measurement": "chemotaxis responses, CHO-Gqo-ALXR cells", "setting": "[6]", "result": "clear chemotaxis responses"}
    ]},
    {"molecule": "CCCCC[C@H](O)/C=C/C=C\\C=C\\C=C\\[C@@H](O)[C@@H](O)CCCC(=O)O", "note": "[LXA4, lipoxin A4, reference compound]", "values": [
      {"measurement": "competition for [^3H]LTB4 binding", "setting": "[7]", "result": "neither LXA4 (ref. [18]) nor Ac2-26 peptide competed"},
      {"measurement": "enhanced uptake of apoptotic neutrophils by monocytes/macrophages", "setting": "[8]", "result": "enhance the uptake of apoptotic neutrophils"},
      {"measurement": "competition for specific [^125I-Tyr]Ac2-26 binding (in words)", "setting": "[9]", "result": "specifically competed"},
      {"measurement": "competition for specific [^125I-Tyr]Ac2-26 binding, adherent PMNs (in words)", "setting": "[10]", "result": "retained their ability to compete"},
      {"measurement": "competition for [^125I-Tyr]Ac2-26 binding to human PMN (in words)", "setting": "[11]; suspension", "result": "competed for [^125I-Tyr]Ac2-26 peptide binding to human PMN"}
    ]},
    {"molecule": "Ac2-6: ANXA1-derived peptide (Ac-AMVSE; UniProt P04083 2-6, looked up, fragment)", "values": [
      {"measurement": "inhibition of PMN infiltration, i.v. peptides (in words)", "setting": "[3]; i.v. tail vein 15 min prior to 1 mg Zymosan A, 6–12 mice", "result": "inhibited PMN infiltration in a dose-dependent fashion"}
    ]},
    {"molecule": "B1", "values": [
      {"measurement": "activation of HEK293 cells expressing ALXR/FPRL1", "setting": "[12]", "result": "activates HEK293 cells expressing ALXR/FPRL1"},
      {"measurement": "inhibition of human PMN oxidative burst", "setting": "[13]", "result": "inhibits human PMN oxidative burst"},
      {"measurement": "competition for specific [^3H]LXA4 binding (in words)", "setting": "[14]", "result": "competes for specific [^3H]LXA4 binding"},
      {"measurement": "competition for specific [^125I-Tyr]Ac2-26 binding, adherent PMNs (in words)", "setting": "[10]", "result": "retained their ability to compete"},
      {"measurement": "IC50", "setting": "[11]; read-out: apparent IC50, competition for specific [^125I-Tyr]Ac2-26 binding, human PMNs in suspension", "result": "~1", "unit": "µM"}
    ]},
    {"molecule": "Ac-AMVSEFLKQAW", "note": "[ANXA1-derived peptide Ac2-12]", "values": [
      {"measurement": "IC50", "setting": "[15]", "result": "~0.3", "unit": "µM"},
      {"measurement": "IC50", "setting": "[16]", "result": "~20", "unit": "µM"}
    ]},
    {"molecule": "B2", "values": [
      {"measurement": "inhibition of PMN transmigration and phagocytosis", "setting": "[17]", "result": "potent inhibitors of PMN transmigration and phagocytosis"},
      {"measurement": "ANXA1 generation in exudates", "setting": "[18]", "result": "low at 4 hours and much higher at 16 hours"},
      {"measurement": "co-immunoprecipitation of ANXA1 with ALXR/FPRL1, non-adherent PMNs", "setting": "[19]", "result": "not co-immunoprecipitated"},
      {"measurement": "reduction of ANXA1 interactions with circulating leukocytes or peritoneal macrophages in FPR-deficient mice", "setting": "[20]", "result": "~ 40%"},
      {"measurement": "competition for specific [^125I-Tyr]Ac2-26 binding (in words)", "setting": "[9]", "result": "competed for [^125I-Tyr]Ac2-26 binding with similar affinity"}
    ]},
    {"molecule": "Ac-AMVSEFLKQAWFIENEEQEY(125I)VQTVK", "note": "[[125I-Tyr]Ac2-26 peptide (radio-iodinated ANXA1-derived peptide Ac2-26)]", "values": [
      {"measurement": "Kd", "setting": "[16]", "result": "~0.9", "unit": "µM"}
    ]},
    {"molecule": "Ac-AMVSEFLKQAWFIENEEQEYVQTVK", "note": "[ANXA1-derived peptide Ac2-26 (unlabelled)]", "values": [
      {"measurement": "IC50", "setting": "[15]", "result": "~0.3", "unit": "µM"}
    ]},
    {"molecule": "B3", "values": [
      {"measurement": "effect on cellular response to subsequent fMLP (in words)", "setting": "[1]; Ac2-26 10 μM, hrANXA1 0.5 μM", "result": "did not affect the cellular response"}
    ]}
  ]
}
